Laboratory results: patent US8492331B2, “Methods for increasing absorption of peptides, peptidomimetics and other gastrointestinal transport protein substrates” (Nestec S.A., priority 2008, dated 2013)
Each block holds one compound with its values, some of them ahead of it.

Assays:
[1] = Titration of oral melatonin dose on cephalexin absorption: serum pharmacokinetics of cephalexin (Example 2)
Experimental: (§1) Methology: The study used n=40 Labrador Retriever dogs (BW range: 21-40 kg) to test the oral ingestion of melatonin compared to no-melatonin placebo control on the absorption of cephalexin, an antibiotic that also serves as a marker substrate for small peptides. The dogs were balanced for gender and the ages ranged from 1.5 to 9 years old. The study evaluated cephalexin absorption by orally administering a single 15 mg/kg BW dose of cephalexin to dogs at 2:00 pm, and subsequently determining the pharmakinetics of cephalexin appearance in serum. Dogs were randomized into 5 different treatment groups and received a single oral dose of melatonin (0.01, 0.1, 1, or 3 mg/kg BW) in a gelatin capsule or placebo simultaneously as the cephalexin dose. The oral dose was immediately followed by an oral administration of 60 mL of water by a 60 mL irrigation syringe. The melatonin dose diluent and placebo pill were the inert carrier, avicel. Cephalexin pharmakinetics were analyzed at 30 and 60 min after dosing and 1.5, 2, 2.5, 3, 4, and 6 hours after oral dosing of cephalexin. Cephalexin concentration was determined by high pressure liquid chromatograph.

[2] = Serum melatonin pharmacokinetics after oral melatonin, radioimmunoassay (Example 1); format: in vivo, Dogs
Text: Melatonin was quantified by radioimmunoassay procedures.

[3] = both, Labrador Retriever, dog, in vivo, po, 3 mg/kg
Experimental: as §1

[4] = Day/night activity, Actiwatch monitor, 24 h before and 48 h after oral melatonin (Example 2); format: in vivo, Labrador Retriever dogs; conditions: for Activity (Actiwatch): start of day 2
Experimental: Dogs were fitted with an Actiwatch monitor 24 hours before oral ingestion of one of the melatonin doses, specifically at 2 PM on day 1. Following the oral administration of melatonin, the activity monitoring continued for another 48 hours, at which time the monitors were removed and the data collected for analysis. The dogs were exposed to 11.5 h light:12.5 h dark cycle, in which kennel lighting and natural light was combined over the 11.5 hour period. In the morning the light cycle began with exposure to kennel lighting at 6 AM and darkness onset occurred at 5:30 PM with sunset. For data analysis, activity was separated into three periods of time, afternoon light phase (2 PM to 5:30 PM, 3.5 h duration), dark phase (5:30 PM to 6 AM, 12.5 h duration), and morning light phase (6 AM to 2 PM, 8 h duration). For data analysis purposes, a 24 hour period is from 2:00 PM to 1:59 PM.

[5] = melatonin 1 mg/kg BW oral before cephalexin 15 mg/kg BW oral
Experimental: (§2) Methodology: The study was designed to test the feeding of melatonin on the absorption of cephalexin. Dogs (n=24, Body Weight (BW) range: 7-14 kg, age range: 1.5 to 14 yrs) were divided into a test group and a control group. The respective groups were balanced for gender.
(§3) The test group received a single dose of melatonin (1 mg/kg BW) at 12:00 pm, followed by a single dose of cephalexin (15 mg/kg BW) between 1:00 and 2:00 pm. Dosing with melatonin and cephalexin were both by oral administration to the dogs. The study evaluated cephalexin absorption by determining the pharmacokinetics of cephalexin appearance in serum subsequent to the melatonin administration. […] Samples for pharmacokinetic analysis were taken at 15, 30, 45, and 60 min, as well as 1.5, 2, 2.5, 3, 3.5, 4, 6, and 8 hours after oral dosing of cephalexin. Cephalexin concentration was determined by high pressure liquid chromatograph. Serum melatonin content was analyzed before and after the oral administration time, e.g., at −5, −3, −1, −0.5 hour before, 0 (dosing time), and at 0.5, 1, 2, 3, 4, and 6 hours after oral dosing of melatonin. Melatonin was quantified by radioimmunoassay procedures.

in vivo [6] = conditions: both, Labrador Retriever, dog, serum, oral, 15 mg/kg BW
Experimental: as §1

in vivo [7] = conditions: both, dog, serum, oral, 15 mg/kg BW
Experimental: as §2, §3

Amount of cephalexin appearing in the blood compared to the placebo group ([1]; melatonin 0.01 mg/kg BW oral): slightly decreased
concentration at 1 h ([2]; dog, serum, melatonin 1 mg/kg BW oral at 12:00 pm, sample 1:00 pm): 9.55 ng/mL
concentration at 1.5 h ([2]; dog, serum, melatonin 1 mg/kg BW oral at 12:00 pm, sample 1:30 pm): 8.97 ng/mL
concentration at 2 h ([2]; dog, serum, melatonin 1 mg/kg BW oral at 12:00 pm, sample 2:00 pm): 4.79 ng/mL
concentration at 3 h ([2]; dog, serum, melatonin 1 mg/kg BW oral at 12:00 pm, sample 3:00 pm): 1.46 ng/mL
concentration at 4 h ([2]; dog, serum, melatonin 1 mg/kg BW oral at 12:00 pm, sample 4:00 pm): 0.747 ng/mL
concentration at 5 h ([2]; dog, serum, melatonin 1 mg/kg BW oral at 12:00 pm, sample 5:00 pm): 0.273 ng/mL
concentration at 7 h ([2]; dog, serum, melatonin 1 mg/kg BW oral at 12:00 pm, sample 7:00 pm): 0.0885 ng/mL
concentration at -3 h ([2]; dog, serum, melatonin 1 mg/kg BW oral at 12:00 pm, sample 9:00 am (before dosing)): 0.0039 ng/mL
concentration at -1 h ([2]; dog, serum, melatonin 1 mg/kg BW oral at 12:00 pm, sample 11:00 am (before dosing)): 0.0005 ng/mL
concentration at 0 h ([2]; dog, serum, melatonin 1 mg/kg BW oral at 12:00 pm, sample 12:00 pm (dosing time)): 0.0184 ng/mL
concentration at 0.5 h ([2]; dog, serum, melatonin 1 mg/kg BW oral at 12:00 pm, sample 12:30 pm): 10.7 ng/mL
Cephalexin AUC greater than placebo group [3]: 45-34
Activity (Actiwatch) ([4]; melatonin 0.01 mg/kg BW oral at 2 PM, Afternoon Light Phase (2 PM-5:30 PM), Day 1 (before dosing)): 30064
Activity (Actiwatch) ([4]; melatonin 0.01 mg/kg BW oral at 2 PM, Afternoon Light Phase (2 PM-5:30 PM), Day 2): 44935
Activity (Actiwatch) ([4]; melatonin 0.01 mg/kg BW oral at 2 PM, Afternoon Light Phase (2 PM-5:30 PM), Day 3): 39386
Activity (Actiwatch) ([4]; melatonin 0.01 mg/kg BW oral at 2 PM, Dark Phase (5:30 PM-6 AM), Day 1 (before dosing)): 32346
Activity (Actiwatch) ([4]; melatonin 0.01 mg/kg BW oral at 2 PM, Dark Phase (5:30 PM-6 AM), Day 2): 30930
Activity (Actiwatch) ([4]; melatonin 0.01 mg/kg BW oral at 2 PM, Dark Phase (5:30 PM-6 AM), Day 3): 34140
Activity (Actiwatch) ([4]; melatonin 0.01 mg/kg BW oral at 2 PM, Morning Light Phase (6 AM-2 PM), Day 1 (before dosing)): 140160
Activity (Actiwatch) ([4]; melatonin 0.01 mg/kg BW oral at 2 PM, Morning Light Phase (6 AM-2 PM), Day 2): 128216
Activity (Actiwatch) ([4]; melatonin 0.01 mg/kg BW oral at 2 PM, Morning Light Phase (6 AM-2 PM), Day 3): 120706
Activity (Actiwatch) ([4]; melatonin 0.1 mg/kg BW oral at 2 PM, Afternoon Light Phase (2 PM-5:30 PM), Day 1 (before dosing)): 28140
Activity (Actiwatch) ([4]; melatonin 0.1 mg/kg BW oral at 2 PM, Afternoon Light Phase (2 PM-5:30 PM), Day 2): 30124
Activity (Actiwatch) ([4]; melatonin 0.1 mg/kg BW oral at 2 PM, Afternoon Light Phase (2 PM-5:30 PM), Day 3): 21497
Activity (Actiwatch) ([4]; melatonin 0.1 mg/kg BW oral at 2 PM, Dark Phase (5:30 PM-6 AM), Day 1 (before dosing)): 38464
Activity (Actiwatch) ([4]; melatonin 0.1 mg/kg BW oral at 2 PM, Dark Phase (5:30 PM-6 AM), Day 2): 30753
Activity (Actiwatch) ([4]; melatonin 0.1 mg/kg BW oral at 2 PM, Dark Phase (5:30 PM-6 AM), Day 3): 32849
Activity (Actiwatch) ([4]; melatonin 0.1 mg/kg BW oral at 2 PM, Morning Light Phase (6 AM-2 PM), Day 1 (before dosing)): 133337
Activity (Actiwatch) ([4]; melatonin 0.1 mg/kg BW oral at 2 PM, Morning Light Phase (6 AM-2 PM), Day 2): 130972
Activity (Actiwatch) ([4]; melatonin 0.1 mg/kg BW oral at 2 PM, Morning Light Phase (6 AM-2 PM), Day 3): 99800
Activity (Actiwatch) ([4]; melatonin 1 mg/kg BW oral at 2 PM, Afternoon Light Phase (2 PM-5:30 PM), Day 1 (before dosing)): 34376
Activity (Actiwatch) ([4]; melatonin 1 mg/kg BW oral at 2 PM, Afternoon Light Phase (2 PM-5:30 PM), Day 2): 44889
Activity (Actiwatch) ([4]; melatonin 1 mg/kg BW oral at 2 PM, Afternoon Light Phase (2 PM-5:30 PM), Day 3): 31184
Activity (Actiwatch) ([4]; melatonin 1 mg/kg BW oral at 2 PM, Dark Phase (5:30 PM-6 AM), Day 1 (before dosing)): 47178
Activity (Actiwatch) ([4]; melatonin 1 mg/kg BW oral at 2 PM, Dark Phase (5:30 PM-6 AM), Day 2): 26733
Activity (Actiwatch) ([4]; melatonin 1 mg/kg BW oral at 2 PM, Dark Phase (5:30 PM-6 AM), Day 3): 49958
Activity (Actiwatch) ([4]; melatonin 1 mg/kg BW oral at 2 PM, Morning Light Phase (6 AM-2 PM), Day 1 (before dosing)): 155482
Activity (Actiwatch) ([4]; melatonin 1 mg/kg BW oral at 2 PM, Morning Light Phase (6 AM-2 PM), Day 2): 151573
Activity (Actiwatch) ([4]; melatonin 1 mg/kg BW oral at 2 PM, Morning Light Phase (6 AM-2 PM), Day 3): 126103
Activity (Actiwatch) ([4]; melatonin 3 mg/kg BW oral at 2 PM, Afternoon Light Phase (2 PM-5:30 PM), Day 1 (before dosing)): 30548
Activity (Actiwatch) ([4]; melatonin 3 mg/kg BW oral at 2 PM, Afternoon Light Phase (2 PM-5:30 PM), Day 2): 45730
Activity (Actiwatch) ([4]; melatonin 3 mg/kg BW oral at 2 PM, Afternoon Light Phase (2 PM-5:30 PM), Day 3): 35034
Activity (Actiwatch) ([4]; melatonin 3 mg/kg BW oral at 2 PM, Dark Phase (5:30 PM-6 AM), Day 1 (before dosing)): 33517
Activity (Actiwatch) ([4]; melatonin 3 mg/kg BW oral at 2 PM, Dark Phase (5:30 PM-6 AM), Day 2): 35926
Activity (Actiwatch) ([4]; melatonin 3 mg/kg BW oral at 2 PM, Dark Phase (5:30 PM-6 AM), Day 3): 33492
Activity (Actiwatch) ([4]; melatonin 3 mg/kg BW oral at 2 PM, Morning Light Phase (6 AM-2 PM), Day 1 (before dosing)): 139265
Activity (Actiwatch) ([4]; melatonin 3 mg/kg BW oral at 2 PM, Morning Light Phase (6 AM-2 PM), Day 2): 153805
Activity (Actiwatch) ([4]; melatonin 3 mg/kg BW oral at 2 PM, Morning Light Phase (6 AM-2 PM), Day 3): 117374
Activity during the dark phase immediately following oral ingestion, compared to placebo ([4]; melatonin 0.01, 0.1, and 1 mg/kg groups): decrease compared to the placebo groups
Nighttime activity ([4]; oral melatonin administered in the afternoon): nighttime activity is slightly reduced
Effect of oral melatonin on absorption of cephalexin [5]: increased the absorption of cephalexin
SMILES: COc1ccc2[nH]cc(CCNC(C)=O)c2c1 [Melatonin, 5-methoxy-N-acetyltryptamine]
Effect on absorption of cephalexin compared to placebo dogs ([1]; melatonin 0.1, 1, and 3 mg/kg BW oral): an increase in the absorption of cephalexin
Melatonin appearance in serum ([2]; dogs that ingested melatonin 1 mg/kg BW, versus baseline levels of control dogs): increased significantly for up to 6 hours after ingestion
Influence on activity, late afternoon light phase (2 pm to 5:30 pm) ([4]; oral melatonin 0.01, 0.1, 1, and 3 mg/kg BW): did not demonstrate any influence of oral melatonin on activity
Impact on activity in the daylight hours ([4]; oral melatonin 0.01-3 mg/kg BW): does not seem to impact activity of dogs in the daylight hours

concentration at 0.5 h (in vivo [6]): 2010 ng/mL
concentration at 1 h (in vivo [6]): 6280 ng/mL
concentration at 1.5 h (in vivo [6]): 9920 ng/mL
concentration at 2 h (in vivo [6]): 11800 ng/mL
concentration at 2.5 h (in vivo [6]): 12400 ng/mL
concentration at 3 h (in vivo [6]): 12200 ng/mL
concentration at 4 h (in vivo [6]): 11300 ng/mL
concentration at 6 h (in vivo [6]): 7570 ng/mL
concentration at 0.25 h (in vivo [7]): 790 ng/mL
concentration at 0.5 h (in vivo [7]): 4170 ng/mL
concentration at 0.75 h (in vivo [7]): 8190 ng/mL
concentration at 1 h (in vivo [7]): 10900 ng/mL
concentration at 1.5 h (in vivo [7]): 13900 ng/mL
concentration at 2 h (in vivo [7]): 13700 ng/mL
concentration at 2.5 h (in vivo [7]): 14300 ng/mL
concentration at 3 h (in vivo [7]): 13000 ng/mL
concentration at 3.5 h (in vivo [7]): 11800 ng/mL
concentration at 4 h (in vivo [7]): 9900 ng/mL
concentration at 6 h (in vivo [7]): 5910 ng/mL
concentration at 8 h (in vivo [7]): 3730 ng/mL
SMILES: CC1=C(C(=O)O)N2C(=O)[C@@H](NC(=O)[C@H](N)c3ccccc3)[C@H]2SC1 [Cephalexin, cephalexin]
